How the values were obtained:
in vivo = test: in vivo; design: species or system mice; conditions: male, C57BL6, mouse, im, 200 mg/kg
Procedure: All dosing materials were constituted just before use. Mepron suspension (150 mg/mL atovaquone) was the starting material. Pluronic F-68 (10%) was used to dilute Mepron to required dosing concentration (≤100 mg/mL), or as vehicle control. For the washed drug preparation, atovaquone was pelleted from diluted Mepron (50 mg/mL, 13,000×g, 10 min) and the supernatant was replaced with equal volume 0.9% NaCl. Washing was repeated three times prior to final resuspension of excipient-depleted atovaquone at 50 mg/mL in 0.9% NaCl for dosing. C57BL6 male mice (˜20 g; 3-5 per group) were injected intramuscularly (biceps femoris; 23-gauge needle, 100 μl Hamilton syringe) with diluted or washed Mepron (40 μl total volume, 20 μl per limb). Oral Mepron was administered by gavage. At predetermined post-dose intervals, animals were challenged with P. berghei ANKA by infusion of 5,000 sporozoites into a tail vein. Starting 4 d post-challenge then weekly thereafter for 42 d, tail snip blood samples were examined for parasites via Giemsa-stained thin smears. Each experiment included an untreated cohort to validate the challenge. Efficacy outcomes were binary. The appearance of parasitemia in any animal in a cohort was designated a dosing failure. […]

[1] = system: P. berghei ANKA sporozoites; test: murine Plasmodium berghei sporozoite challenge model (prophylaxis efficacy); assay type: in vivo; conditions: intramuscular, dose-dependent; mice; FIG. 2
Procedure: Four- to six-day old Anopheles stephensi adult mosquitoes fasted for 6 h were fed on Swiss Webster mice infected with P. berghei (ANKA 2.34 strain). Fed mosquitoes were maintained for 18 d (19° C., 80% relative humidity), when salivary glands were harvested into RPMI medium and disrupted by several passages through a 0.5 in 28-gauge needle to release sporozoites. Parasites were counted by hemocytometer and diluted to 25,000 mL^−1 RPMI. C57BL6 mice were challenged by intravenous infusion of 5,000 sporozoites in 200 μL RPMI.
All dosing materials were constituted just before use. Mepron suspension (150 mg/mL atovaquone) was the starting material. Pluronic F-68 (10%) was used to dilute Mepron to required dosing concentration (≤100 mg/mL), or as vehicle control. For the washed drug preparation, atovaquone was pelleted from diluted Mepron (50 mg/mL, 13,000×g, 10 min) and the supernatant was replaced with equal volume 0.9% NaCl. Washing was repeated three times prior to final resuspension of excipient-depleted atovaquone at 50 mg/mL in 0.9% NaCl for dosing. C57BL6 male mice (˜20 g; 3-5 per group) were injected intramuscularly (biceps femoris; 23-gauge needle, 100 μl Hamilton syringe) with diluted or washed Mepron (40 μl total volume, 20 μl per limb). Oral Mepron was administered by gavage. […]

[2] = cited from earlier work

Q: With `O=C1C(O)=C([C@H]2CC[C@H](c3ccc(Cl)cc3)CC2)C(=O)c2ccccc21` [atovaquone] as the compound, how does the half-life (in vivo) read?
A: The half-life was 182 h.

Q: And the “successful malaria prophylaxis (parasite-free), days post-challenge” value [1]?
A: Its value is “up to 42 days”.

Q: What about the solubility in water [2] of the same compound?
A: The solubility in water was “practically insoluble”.

From patent US20200155481A1, “INTRAMUSCULAR ATOVAQUONE FOR MALARIA PROPHYLAXIS” (THE JOHNS HOPKINS UNIVERSITY, priority 2017, published 2020)
